Source: patent publication US20130018062A1, “Pain therapy with metabolism blocked antifolates” (priority 2011, published 2013)

How the values were obtained:
Allergic Rabbits = conditions: allergen induced; cited from earlier work
[1] = tested on: patients with Rheumatoid Arthritis; conditions: compared with methotrexate; cited from earlier work
CCRF-CEM (Leukemia) = assay: Growth inhibition of human tumor cells in culture (NCI); assay type: cell-based; conditions: logarithmic value
From the text: (§1) The preceding data collected at the National Cancer Institute summarize the ability of M-Trex to inhibit 50% of the growth of selected tumor cells in culture. The values are expressed as Log10 GI50 values all of which are lower than 10^−8M. In the same table a comparison is made of the respective values of TGI (Total Growth Inhibition) for M-Trex and MTX. […] In addition, the Log10 GI50 values of M-Trex was lower than −8.00 for the following cell lines: NSCLC, A549/ATCC and NCI H23; Colon Cancer, HCT 116, HCT 29 and SW 620; CNS Cancer, SF 268; Melanoma M 14 and UACC 62; Ovarian Cancer, OVCAR-8; Renal Cancer, ACHN, CAKI-1, SN 12C, and UO 31; Prostate Cancer, PC 3 and Breast cancer, MDA-MB-435 and MDA-N. The MG_MID value of MTX for all 49 human tumor cell lines evaluated at NCI-DTP program was −7.05. […] The tumors and sarcomas are solid while leukemia and lymphoma are liquid tumors.

MOLT-4 (Leukemia) = assay: as above; assay type: cell-based; conditions: logarithmic value
From the text: as §1

K562 (Leukemia) = assay: as above; assay type: cell-based; conditions: logarithmic value
From the text: as §1

SR (Leukemia) = assay: as above; assay type: cell-based; conditions: logarithmic value
From the text: as §1

SF 539 (CNS Cancer) = assay: as above; assay type: cell-based; conditions: logarithmic value
From the text: as §1

RPMI 8226 (Leukemia) = assay: as above; assay type: cell-based; conditions: logarithmic value
From the text: as §1

[2] = tested on: Human HCT-8 Colon Xenograft; assay: Antitumor activity in nude mice bearing human HCT-8 colon xenograft (Example-4); assay type: in vivo; conditions: i.v. push daily × 5 at maximum tolerated dose (M-Trex 4.0, MTX 1.0 mg/kg/day)
From the text: There are three general accepted methods for the evaluation of Pain in patients suffering from a number of diseases. They are Visual Analog Scale (VAS); Numeric rating Scale (NRS) and Verbal Categorical Rating Scale […]. Of these three assessment methods VAS is considered to be most reliable in a majority of cases to evaluate and quantify the magnitude of the perception of Pain. Clinical trials conducted by Castaneda and Nair used VAS to assess pain intensity in RA patients receiving 10-DAAM in one trial [G. Alarcon, O. Castaneda, W. J. Koopman, C. L. Krumdieck, and M. G. Nair. U.S. Pat. No. 5,030,634 (1991)] and M-Trex (CH-1504) in another trial conducted separately. Almost all cases of cancer Pain is due to tissue inflammation, tissue compression and tissue damage secondary to rapid proliferation of cells. Therefore any therapeutic intervention that shrinks proliferating tissues can bring about significant reduction in Pain. Shown below is the efficacy of M-Trex in shrinking human colon cancer transplanted and growing in nude mice.

[3] = Toxicity (maximum tolerated dose, weight loss) in nude mice bearing HCT-8 xenograft; assay type: in vivo; conditions: i.v. push daily × 5 in nude mice
human tumor cell lines = conditions: all 49 human tumor cell lines evaluated at NCI-DTP program; cited from earlier work

SMILES	Asthmatic Response Early (Allergic Rabbits)	Asthmatic Response Late (Allergic Rabbits)	BHR (Bronchial Hyper-Responsiveness) (Allergic Rabbits)	Pain reduction (in words) [1]	TGI (Total Growth Inhibition) (CCRF-CEM (Leukemia))	TGI (Total Growth Inhibition) (MOLT-4 (Leukemia))	TGI (Total Growth Inhibition) (K562 (Leukemia))	TGI (Total Growth Inhibition) (SR (Leukemia))	TGI (Total Growth Inhibition) (SF 539 (CNS Cancer))	TGI (Total Growth Inhibition) (RPMI 8226 (Leukemia))	MTGI, Maximum Tumor Growth Inhibition (% of control) ([2]; nude mice, HCT-8 xenograft) [%]	Tumor doubling time, treated/control (%) ([2]; nude mice, HCT-8 xenograft)	TD, Tumor Doubling Time ([2]; control 2.6 ± 0.8 days) [days]	Maximum Tolerated dose [3]	MG_MID value (human tumor cell lines)
Cn1c(=O)c2[nH]cnc2n(C)c1=O [Theophylline]	45	49	39												
Nc1nc(N)c2nc(CCc3ccc(C(=O)N[C@@H](CCC(=O)O)C(=O)O)cc3)cnc2n1 [10-DAAM, 10-Deazaaminopterin]				very effective in reducing Pain											
CN(Cc1cnc2nc(N)nc(N)c2n1)c1ccc(C(=O)N[C@@H](CCC(=O)O)C(=O)O)cc1 [MTX, methotrexate, reference compound]	29	37	32		−3.77	−3.55	−3.30	−3.50	−3.66	−3.66	30.0 ± 9.0	176.92	4.6 ± 0.6	MTX (1.0 mg/kg/day)^33	−7.05
